One data set deals with Akt. Description: Akt Colorimetric In-Cell ELISA, Akt inhibition in A549 cells. Type of data set: cell-based, human. The conditions noted are these: 24 h; for IC50: A549 cell line, mean ± SD, triplicate, read-out: Akt inhibitory effect IC50. How it is done:
The assay was performed in triplicate. IC50 data (μM) were expressed as mean ± SD.

Another data set relates to A549 cells. The data set is described as follows: Annexin V FITC/PI flow cytometric analysis of apoptosis. The conditions noted are these: 24 h, each agent at its IC50 (3a 91.35, 3e 176.23, 3g 46.60, 3i 83.59, cisplatin 23.89 μM). In general terms: A flow cytometer gives signals particle by particle.
Data set [1] has as its system A549 human lung adenocarcinoma cells. The data set is described as follows: MTT test, cytotoxicity on A549 cells. The conditions noted are these: triplicate, read-out: IC50 A549 cell line. In kind it is cell-based. How it is done: (§1) A549 and L929 cell lines were purchased from American Type Culture Collection (Manassas, VA, USA). Cells were cultured, and drug treatments were performed as previously explained.[46]
(§2) MTT assay was conducted as previously described[47] with slight modifications.[48] Cisplatin was used as a positive control. The assay was performed in triplicate. Half-maximal inhibitory concentration (IC50) data (μM) were expressed as mean ± SD.
Background: Tetrazolium assays rely on reduction of a dye to a coloured formazan, in cell work by metabolically active cells.

Data set [2] concerns L929 mouse embryonic fibroblast cells. Description: MTT test, cytotoxicity on L929 cells. In kind it is cell-based. The conditions noted are these: mean ± SD, triplicate, read-out: IC50 L929 cell line. The method, then:
as §1, §2

SMILES strings stand for the structures. Like-named read-outs stand apart in the source and are kept apart here. Where only a bound is given, the exact number is not on record here.

Usually IC50 stands for the concentration that inhibits the measured activity by half. What is called melting point is the temperature, or range, at which the solid turns liquid. As for `CN(C)c1ccc(C=NNC(=O)CSc2nc3cc(Cl)ccc3o2)cc1` [Compound 3a, N′-(4-Dimethylaminobenzylidene)-2-[(5-chlorobenzoxazol-2-yl)thio]acetohydrazide], the melting point is 197 to 199 °C. The Akt inhibition in the data set with Akt (A549 cells, at 91.35 μM) stood at 35.40 ± 13.36%. Moreover, in the data set on A549 cells, the “early apoptosis (%)” value is given as 11.22%, the “late apoptosis (%)” value turned out to be 4.97% and the “necrosis (%)” value stood at 0.79%. Further, the IC50 in data set [1] (Homo sapiens, A549, mean ± SD) turned out to be 91.4 ± 21.9 µM. Besides, the IC50 in data set [2] is > 500 µM.
In turn, `O=C(CSc1nc2cc(Cl)ccc2o1)NN=Cc1ccc([N+](=O)[O-])cc1` [Compound 3d, N′-(4-Nitrobenzylidene)-2-[(5-chlorobenzoxazol-2-yl)thio]acetohydrazide] came in with a melting point of 237 to 239 °C. Besides, the IC50 in data set [1] (Homo sapiens, A549, mean ± SD) is > 500 µM. The IC50 in data set [2] is > 500 µM.
Consider `CCn1c(-c2nonc2N)nc2c(C#CC(C)(C)O)ncc(OC[C@H]3CCCNC3)c21` [GSK690693, reference compound], for which, in the data set on Akt, the IC50 was found to be 5.93 ± 1.2 µM.
`O=C(CSc1nc2cc(Cl)ccc2o1)NN=Cc1ccc(N2CCOCC2)cc1` [Compound 3f, N′-[4-(Morpholin-4-yl)benzylidene]-2-[(5-chlorobenzoxazol-2-yl)thio]acetohydrazide] showed a melting point of 209 to 210 °C. For the same compound, in data set [1] (Homo sapiens, A549, mean ± SD), the IC50 stood at 251 ± 45.9 µM. For the same compound, the IC50 in data set [2] was > 500 µM.
`O=C(CSc1nc2cc(Cl)ccc2o1)NN=Cc1ccc(N2CCCC2)cc1` [Compound 3h, N′-[4-(Pyrrolidin-1-yl)benzylidene]-2-[(5-chlorobenzoxazol-2-yl)thio]acetohydrazide] gave a melting point of 206 to 207 °C. Besides, the IC50 in data set [1] (Homo sapiens, A549, mean ± SD) was > 500 µM. In addition, the IC50 in data set [2] was > 500 µM.
`O=C(CSc1nc2cc(Cl)ccc2o1)NN=Cc1ccc(-n2cncn2)cc1` [Compound 3j, N′-[4-(1H-1,2,4-Triazol-1-yl)benzylidene]-2-[(5-chlorobenzoxazol-2-yl)thio]acetohydrazide] came in with a melting point of 256 to 257 °C. The IC50 in data set [1] (Homo sapiens, A549, mean ± SD) was > 500 µM. Also, in data set [2], the half-maximal inhibitory concentration (IC50) is > 500 µM.
For `O=C(CSc1nc2cc(Cl)ccc2o1)NN=Cc1ccc(N2CCCCC2)cc1` [Compound 3e, N′-[4-(Piperidin-1-yl)benzylidene]-2-[(5-chlorobenzoxazol-2-yl)thio]acetohydrazide], the IC50 in the data set on Akt is 106 ± 53.7 µM. Also, in the data set with A549 cells, the “early apoptosis (%)” value amounted to 3.26%, the “late apoptosis (%)” value turned out to be 1.76% and the “necrosis (%)” value is reported as 3.79%. The IC50 in data set [1] (Homo sapiens, A549, mean ± SD) is 176 ± 56.5 µM. In data set [2], the 50% inhibitory concentration (IC50) was > 500 µM.
The compound `CN1CCN(c2ccc(C=NNC(=O)CSc3nc4cc(Cl)ccc4o3)cc2)CC1` [Compound 3g, N′-[4-(4-Methylpiperazin-1-yl)benzylidene]-2-[(5-chlorobenzoxazol-2-yl)thio]acetohydrazide] had a melting point of 178 to 179 °C. Moreover, the “inhibitory effect on Akt (in words)” value with Akt (A549 cells, 11.65, 23.30 and 46.60 μM) was “did not exert any inhibitory effect”. In the data set with A549 cells, the “early apoptosis (%)” value is 7.13%, the “late apoptosis (%)” value is 12.17% and the “necrosis (%)” value was 0.78%. In addition, in data set [1] (Homo sapiens, A549, mean ± SD), the IC50 was found to be 46.6 ± 6.15 µM. Moreover, the IC50 in data set [2] was 277 ± 28.9 µM.
For `CCN(CC)c1ccc(C=NNC(=O)CSc2nc3cc(Cl)ccc3o2)cc1` [Compound 3b, N′-(4-Diethylaminobenzylidene)-2-[(5-chlorobenzoxazol-2-yl)thio]acetohydrazide], the melting point lay within 172 to 173 °C. Also, the IC50 in data set [1] (Homo sapiens, A549, mean ± SD) was 410 ± 220 µM. Also, the IC50 in data set [2] was > 500 µM.
The compound `O=C(CSc1nc2cc(Cl)ccc2o1)NN=Cc1ccc(-n2ccnc2)cc1` [Compound 3i, N′-[4-(1H-Imidazol-1-yl)benzylidene]-2-[(5-chlorobenzoxazol-2-yl)thio]acetohydrazide] registered a melting point of 229 to 231 °C. The IC50 with Akt was determined as 69.5 ± 1.48 µM. In the data set with A549 cells, the “early apoptosis (%)” value came out at 2.70%, the “late apoptosis (%)” value came out at 6.04% and the “necrosis (%)” value is recorded as 3.51%. Besides, in data set [1] (Homo sapiens, A549, mean ± SD), the IC50 was determined as 83.6 ± 7.3 µM. The concentration for half-maximal inhibition (IC50) in data set [2] was > 500 µM.
`O=C(CSc1nc2cc(Cl)ccc2o1)NN=Cc1ccc(N(CCCl)CCCl)cc1` [Compound 3c, N′-[4-(Bis(2-chloroethyl)amino)benzylidene]-2-[(5-chlorobenzoxazol-2-yl)thio]acetohydrazide]: the melting point is 155 to 156 °C. Also, in data set [1] (Homo sapiens, A549, mean ± SD), the IC50 was > 500 µM. In data set [2], the IC50 was > 500 µM.
Turning to `NNC(=O)CSc1nc2cc(Cl)ccc2o1` [Compound 2, 2-[(5-Chlorobenzoxazol-2-yl)thio]acetohydrazide], the melting point lay in the range of 159 to 161 °C. For the same compound, the IC50 in data set [1] (Homo sapiens, A549, mean ± SD) is > 500 µM. Further, the IC50 in data set [2] was > 500 µM.
Consider `N.N.[Cl][Pt][Cl]` [Cisplatin, reference compound], for which the IC50 in the data set on Akt turned out to be 8.09 ± 0.63 µM. Besides, in the data set with A549 cells, the “early apoptosis (%)” value is listed as 3.61%, the “late apoptosis (%)” value was 3.14% and the “necrosis (%)” value stood at 0.98%. Moreover, the IC50 in data set [1] (mean ± SD) turned out to be 23.9 ± 2.71 µM.

(Values after article PMC10249096, “Design, Synthesis, and Evaluation of a New Series of Hydrazones as Small-Molecule Akt Inhibitors for NSCLC Therapy” (ACS Omega, 2023).)
